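The compound was tested at five concentrations on cells cultured in 96-well plates, with a 48-hour exposure period. At the GI50, growth is halved.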 Active and inactive are the calls of the source. No stated cut-off is given here; in the data, active = GI50 up to about 1.1 µM and inactive = higher.
Columns and labels:
Experiment in all cases: DTP human tumour cell line panel, 48 h
OVCAR-5 = tested on: OVCAR-5
SK-MEL-28 = tested on: SK-MEL-28
XF498 = tested on: XF498
OVCAR-4 = tested on: OVCAR-4
SK-OV-3 = tested on: SK-OV-3
KM12 = tested on: KM12
HOP-92 = tested on: HOP-92
KM-20L2 = tested on: KM-20L2
NCI-H23 = tested on: NCI-H23
NCI-H226 = tested on: NCI-H226
SNB-19 = tested on: SNB-19
U-251 = tested on: U-251
COLO 205 = tested on: COLO 205
HOP-62 = tested on: HOP-62
TK-10 = tested on: TK-10
SR = tested on: SR
HCT-15 = tested on: HCT-15
DMS-273 = tested on: DMS-273
K562 = tested on: K562
UACC-62 = tested on: UACC-62
Malme-3M = tested on: Malme-3M
UO-31 = tested on: UO-31
NCI-H460 = tested on: NCI-H460
SF-295 = tested on: SF-295
NCI-H522 = tested on: NCI-H522
SNB-75 = tested on: SNB-75
CAKI-1 = tested on: CAKI-1
HL-60 = tested on: HL-60
IGROV-1 = tested on: IGROV-1
UACC-257 = tested on: UACC-257
786-0 = tested on: 786-0
SF-539 = tested on: SF-539
RPMI-8226 = tested on: RPMI-8226
LXFL 529 = tested on: LXFL 529
OVCAR-8 = tested on: OVCAR-8
OVCAR-3 = tested on: OVCAR-3
ACHN = tested on: ACHN
MOLT-4 = tested on: MOLT-4
M19-MEL = tested on: M19-MEL
SW-620 = tested on: SW-620
SNB-78 = tested on: SNB-78
A549 = tested on: A549
HCC 2998 = tested on: HCC 2998
HCT-116 = tested on: HCT-116
HT-29 = tested on: HT-29
SN12C = tested on: SN12C
LOX IMVI = tested on: LOX IMVI
SF-268 = tested on: SF-268
SK-MEL-2 = tested on: SK-MEL-2
DLD-1 = tested on: DLD-1
M14 = tested on: M14
HOP-18 = tested on: HOP-18
DMS-114 = tested on: DMS-114
EKVX = tested on: EKVX
RXF 393 = tested on: RXF 393
SK-MEL-5 = tested on: SK-MEL-5

With `O=C(COc1ccccc1Cl)N1N=C(c2ccccc2)CC1(O)c1ccccc1` (centres undefined) the GI50 (OVCAR-5) was 19.4 µM (inactive), the GI50 (SK-MEL-28) was 17.4 µM (inactive) and the GI50 (XF498) was 17.6 µM (inactive). The GI50 (OVCAR-4) was 11.3 µM (inactive), the GI50 (SK-OV-3) was 14.9 µM (inactive) and the GI50 (KM12) was 21.2 µM (inactive). The GI50 (HOP-92) was 22.3 µM (inactive), the GI50 (KM-20L2) was 16.1 µM (inactive) and the GI50 (NCI-H23) was 12.1 µM (inactive). The GI50 (NCI-H226) was 18.5 µM (inactive), the GI50 (SNB-19) was 16.4 µM (inactive) and the GI50 (U-251) was 11.7 µM (inactive). For the same molecule, the GI50 (COLO 205) was 18 µM (inactive), the GI50 (HOP-62) was 15.1 µM (inactive) and the GI50 (TK-10) was 17.1 µM (inactive). For the same molecule, the GI50 (SR) was 4.61 µM (inactive), the GI50 (HCT-15) was 12.9 µM and the GI50 (DMS-273) was 16.7 µM (inactive). For the same molecule, the GI50 (K562) was 14.3 µM (inactive), the GI50 (UACC-62) was 12.8 µM (inactive) and the GI50 (Malme-3M) was 14.9 µM (inactive). The GI50 (UO-31) was 10.1 µM (inactive), the GI50 (NCI-H460) was 18 µM (inactive) and the GI50 (SF-295) was 20.5 µM (inactive). For the same molecule, the GI50 (NCI-H522) was 41.9 µM (inactive), the GI50 (SNB-75) was 47.6 µM (inactive) and the GI50 (CAKI-1) was 29 µM (inactive). The GI50 (HL-60) was 9.42 µM (inactive), the GI50 (IGROV-1) was 17.9 µM (inactive) and the GI50 (UACC-257) was 20.7 µM (inactive). The GI50 (786-0) was 17.3 µM (inactive), the GI50 (SF-539) was 18.9 µM (inactive) and the GI50 (RPMI-8226) was 8.17 µM (inactive). The GI50 (LXFL 529) was 17.1 µM (inactive), the GI50 (OVCAR-8) was 16.6 µM (inactive) and the GI50 (OVCAR-3) was 15.9 µM (inactive). The GI50 (ACHN) was 17.1 µM (inactive), the GI50 (MOLT-4) was 7.43 µM (inactive) and the GI50 (M19-MEL) was 19 µM (inactive). For the same molecule, the GI50 (SW-620) was 26.5 µM (inactive), the GI50 (SNB-78) was 20.4 µM (inactive) and the GI50 (A549) was 16.9 µM (inactive). The GI50 (HCC 2998) was 15.9 µM (inactive), the GI50 (HCT-116) was 16.4 µM (inactive) and the GI50 (HT-29) was 17 µM (inactive). The GI50 (SN12C) was 12.9 µM (inactive), the GI50 (LOX IMVI) was 16.7 µM (inactive) and the GI50 (SF-268) was 24.6 µM (inactive). For the same molecule, the GI50 (SK-MEL-2) was 18.9 µM (inactive), the GI50 (DLD-1) was 18.5 µM (inactive) and the GI50 (M14) was 17 µM (inactive).

`COC1OC(COCc2ccc(Cl)cc2)C(OCc2ccc(Cl)cc2)C1N=[N+]=[N-]` (centres undefined) was tested, and the GI50 (OVCAR-5) was > 100 µM (inactive), the GI50 (SK-MEL-28) was > 100 µM (inactive) and the GI50 (XF498) was > 100 µM (inactive). The GI50 (OVCAR-4) was > 100 µM (inactive), the GI50 (SK-OV-3) was > 100 µM (inactive) and the GI50 (KM12) was > 100 µM (inactive). The GI50 (HOP-18) was > 100 µM (inactive), the GI50 (HOP-92) was 97.1 µM (inactive) and the GI50 (KM-20L2) was 8 µM (inactive). For the same molecule, the GI50 (NCI-H23) was 45.1 µM (inactive), the GI50 (NCI-H226) was > 100 µM (inactive) and the GI50 (SNB-19) was > 100 µM (inactive). For the same molecule, the GI50 (U-251) was > 100 µM (inactive), the GI50 (COLO 205) was > 100 µM (inactive) and the GI50 (DMS-114) was 24.2 µM (inactive). The GI50 (EKVX) was > 100 µM (inactive), the GI50 (TK-10) was > 100 µM (inactive) and the GI50 (SR) was 36.2 µM (inactive). The GI50 (HCT-15) was over 100 µM, the GI50 (K562) was 49.8 µM (inactive) and the GI50 (RXF 393) was 27.1 µM (inactive). The GI50 (UACC-62) was 15.3 µM (inactive), the GI50 (Malme-3M) was > 100 µM (inactive) and the GI50 (UO-31) was > 100 µM (inactive). The GI50 (NCI-H460) was > 100 µM (inactive), the GI50 (SF-295) was > 100 µM (inactive) and the GI50 (NCI-H522) was 85.1 µM (inactive). The GI50 (SNB-75) was 73.5 µM (inactive), the GI50 (CAKI-1) was > 100 µM (inactive) and the GI50 (IGROV-1) was 72.3 µM (inactive). The GI50 (UACC-257) was 81.7 µM (inactive), the GI50 (786-0) was 4.7 µM (inactive) and the GI50 (SK-MEL-5) was 44 µM (inactive). The GI50 (RPMI-8226) was 19.4 µM (inactive), the GI50 (LXFL 529) was 95.5 µM (inactive) and the GI50 (OVCAR-8) was > 100 µM (inactive). For the same molecule, the GI50 (OVCAR-3) was 47.8 µM (inactive), the GI50 (ACHN) was > 100 µM (inactive) and the GI50 (MOLT-4) was 42.2 µM (inactive). For the same molecule, the GI50 (SW-620) was > 100 µM (inactive), the GI50 (SNB-78) was > 100 µM (inactive) and the GI50 (A549) was 4.32 µM (inactive). For the same molecule, the GI50 (HCC 2998) was > 100 µM (inactive), the GI50 (HCT-116) was > 100 µM (inactive) and the GI50 (HT-29) was > 100 µM (inactive). For the same molecule, the GI50 (SN12C) was > 100 µM (inactive), the GI50 (SK-MEL-2) was > 100 µM (inactive) and the GI50 (M14) was > 100 µM (inactive).

— ChEMBL document CHEMBL1201862, “PubChem BioAssay data set” (2004)
